Experimental data reported in patent publication US20090232748A1 (ViraTox, L.L.C., priority 2003, published 2009).
Read-outs that look alike come from different tables or passages of the source.

Key:
[1] = system: MDCK (NBL-2)5 (ATCC type CCL-34) cell culture
pH of acid solutions = assay type: physicochemical; conditions: at 0.1%
[2] = system: Feline Infectious Peritonitis Type 2 (“FIP Type 2”) corona virus; experiment: Virucidal bioassay: FIP-2 corona virus suspension exposed to test article, then titrated in CrFK cell culture (TCID50, Reed and Muench); assay type: cell-based, Feline Infectious Peritonitis Type 2 corona virus; conditions: for FIP-2 Titer / % Reduction / Reduction in Titer: 300 seconds exposure; for FIP-2 Titer: control titer 6.70 logs/ml
Source text: (§1) Untreated virus served as controls. […] They were then observed microscopically for CPE inhibition, reporting titers as TCID 50/ml, also expressed as plaque forming units (pfu's). The corrected virus titer (# positives×dilution) is reported in log/ml. Virucidal activity is thus defined as the number of logs reduction of virus titer between the test article and the control (Reed and Muench, Am. J. Hyg. 27:493-497, 1938).

CrFK cell culture = experiment: Cell toxicity / cytopathic effect on host cells in the FIP-2 corona virus test; assay type: cell-based
Source text: as §1

[3] = system: CrFK (ATCC type CCL-94) cell culture; experiment: Cytotoxicity of CPC in the FeLV test
Description: (§2) FeLV retrovirus was gown in cell culture to a titer of 6.0 logs/ml.
(§3) Briefly, virus suspensions were exposed to three concentrations of CPC, 0.025%, 0.05%, and 0.10%, for 300 seconds. Untreated virus served as controls. At the end of the exposure, the virus was titrated in CrFK cell culture. Viral titration was accomplished at each test article concentration by seeding 0.1 ml of a serial dilution of treated virus to the CrFK cell culture. Serial dilutions were prepared from 10^−1 to 10^−8 of the original virus concentration, or five million/ml (6.7 log units) and each dilution then placed in each of four wells (replicates) of a 96 well microplate. The inoculated cells (80 μl per well) are then incubated at 37° C. in a CO2 incubator for five days.

[4] = system: influenza A/Equi 2?Miami 1/63, ATCC VR517; experiment: Virucidal assay: influenza virus exposed to CPC solutions, titrated in MDCK cell culture (Reed and Muench); assay type: cell-based, Orthomyxoviridie virus (influenza A/Equi 2)
FeLV retrovirus = conditions: for reduction in the viral titer: 300 seconds, titer 6.0 logs/ml
Description: as §2, §3

O=C(O)CC(O)(CC(=O)O)C(=O)O [citric acid]
cytotoxic ([1]; acid solution at 0.1%): neither solution was cytotoxic | pH (pH of acid solutions): 2.3

Oc1cc(Cl)ccc1Oc1ccc(Cl)cc1Cl [Triclosan, triclosan]
viral reduction ([2]; all three levels (0.025%, 0.05%, 0.10%)): no viral reduction | cellular toxicity (CrFK cell culture; three concentrations as employed with CPC (0.025%, 0.05%, 0.10%)): cellular toxicity at all three levels

CC(=O)O [acetic acid]
pH (pH of acid solutions): 2.3

CCCCCCCCCCCCCCCC[n+]1ccccc1 [CPC, Cetylpyridinium chloride]
cytotoxic ([3]; CPC 0.025%): not cytotoxic | cytotoxic ([3]; CPC 0.05%): cytotoxic | cytotoxic ([3]; CPC 0.1%): cytotoxic | cytotoxic affects ([1]; test solutions containing 0.025% CPC and 0.1% citric acid): no observed cytotoxic affects | FIP-2 Titer ([2]; CPC 0.025%): 3.30 logs/ml | % Reduction ([2]; CPC 0.05%): 99.97% | Reduction in Titer ([2]; CPC 0.05%): >3.20 logs | FIP-2 Titer ([2]; CPC 0.05%): <3.50 logs/ml | % Reduction ([2]; CPC 0.10%): 99.97% | Reduction in Titer ([2]; CPC 0.10%): >3.20 logs | FIP-2 Titer ([2]; CPC 0.10%): <3.50 logs/ml | reduction to the virus titers ([4]; 0.025% (weight/volume) CPC with 0.1% citric acid (weight/volume)): greater than 3.5 log | reduction to the virus titers ([4]; 0.05% (weight/volume) CPC with 0.1% citric acid (weight/volume)): greater than 3.5 log | adverse cytopathic effects (CrFK cell culture; 0.025% in solution, five minutes): without adverse cytopathic effects | reduction in the viral titer (FeLV retrovirus; CPC 0.025% in conjunction 0.1% citric acid): greater than 3.5 logs/ml | reduction in the viral titer (FeLV retrovirus; CPC 0.025% without citric acid): greater than 3.5 logs/ml | reduction of the FeLV virus (FeLV retrovirus; all three levels of CPC (0.025%, 0.05%, 0.10%) with or without citric acid at 0.1%): 100%
